Measured values: patent US20250213561A1, “SELECTIVE HYPOTHALAMUS PERMEABLE HDAC6 INHIBITORS FOR TREATMENT OF LEPTIN-RESISTANT OBESITY” (The Children’s Medical Center Corporation, priority 2022, published 2025)
Entries after “also recorded” stand apart in the source; their conditions may differ.

Experiments:
HDAC6 = HDAC6 (Mus musculus (Mouse), UniProt Q9Z2V5); assay: LepRb acetyl-lysine immunoblotting in transfected HEK293 cells; type: cell-based; conditions: 200 nM, 0.5-3 h
Method: HEK293 cells were transfected with the plasmids and were treated with vehicle or ACY775. Subsequently Flag immunoprecipitation was used to pull down LepRb followed by Ac^Lys or Flag immunoblotting.
To test whether HDAC6 can deacetylate LepRb, HEK293 cells were transfected with plasmids (LepRb-Flag, HA-p300 and HDAC6-myc). LepRb was immunoprecipitated by Flag antibodies, which was followed by acetyl-lysine (Ac^Lys) or immunoblottings.
Next, cells were transfected with plasmids (LepRb-Flag, HA-p300 and HDAC6-myc) and subsequently treated with ACY775 ([…]) for 0.5, 1, 2 and 3 h. […] Next, to investigate whether HDAC6 has any effect on LepRb tyrosine phosphorylation, which is indicative of LepRb activation, HEK 293 cells were transfected with LepRb and HDAC6-Myc plasmids in the indicated order and the cells stimulated with leptin (200 ng/ml) for 10 and 60 minutes. The Flag immunoprecipitates were exposed to phospho-tyrosine (p^Tyr) immunoblotting.

[1] = system: HDAC6 in ACY775-responsive DMH neurons; assay: TRAP2-HDAC6^DMH-Δ DIO mice; type: in vivo; conditions: TRAP2-HDAC6^DMH-Δ and TRAP2-HDAC6^WT DIO mice
Method: Coordinates used for aav-sg-HDAC6 injection into the DMH of c-Fos-iCreER::LSL-Cas9-GFP (TRAP2-Cas9) mouse., mCherry immunostaining in the aav-sg-HDAC6 injected TRAP2-cas9 obese mice, which were treated three weeks earlier with one dose of ACY775 (10 mg/kg, i.p.) (TRAP2-HDAC6^DMH-Δ) or vehicle (TRAP2-HDAC6^WT), followed by 4-Hydroxytamoxifen (4-OHT) injection, were assessed. TRAP2-HDAC6^WT and TRAP2-HDAC6^DMH-Δ mice were fasted 24-h and treated with ACY775 (10 mg/kg, i.p.). Hourly and total dark cycle food intake (g) (n=4 for each group) was determined for these mice after ACY775 injection. Daily body weight of TRAP2-HDAC6^DMH-Δ(n=10) or TRAP2-HDAC6^WT(n=11) DIO mice was measured during 2 weeks of ACY775 (10 mg/kg/day, i.p) treatment. Daily average food intake of TRAP2-HDAC6^DMH-Δ(n=10) or TRAP2-HDAC6^WT(n=11) DIO mice was measured during 2 weeks of ACY775 treatment.
To investigate whether activity of other neuronal populations are altered after HDAC6 inhibitor treatment, c-fos staining was performed in the whole brain of DIO mice, which were acutely treated with ACY775. […] Some of the DMH neurons express high levels of LepRb and involved in regulation of appetite […]. Whether HDAC6 in these ACY775-responsive DMH neurons is required or involved in any way in mediating the appetite suppressing and body weight lowering effects of ACY775 was then tested. […]

HDAC6 in AgRP neurons = assay: DIO mice with HDAC6 depleted in AgRP neurons (HDAC6^Agrp-Δ); type: in vivo
Method: Design, validation, and stereotaxic injection of AAV viral vector carrying the guide RNAs targeting the mouse HDAC6 genomic locus. Three designed sgRNAs were concatenated and constructed into an AAV vector carrying a cre-enabled mCherry fluorescent marker.
(§1) Following the bilateral injection of AAV-sgHDAC6 into the arcuate nucleus of Agrp-ires-cre::LSL-Cas9-GFP (Agrp-Cre^+/−::Cas9^+/−) or control LSL-Cas9-GFP (Cas9^+/−) mice, immunostaining to detect the expression of mCherry and GFP was performed. AAV-sg-HDAC6 injected Agrp-Cre^+/−::Cas9^+/− (HDAC6^Agrp-Δ) and Cas9^+/−(HDAC6^WT) DIO mice (n=7 for each group) were fasted for 24 hours, and injected with ACY775 (10 mg/kg. i.p). Hourly total dark cycle food intake (g) (n=7 for each group) of these mice after ACY775 injection was measured. Body weight of AAV-sg-HDAC6 injected HDAC6^Agrp-Δ (n=11) and HDAC6^WT (n=6) mice were measured during 3 weeks of ACY775 (10 mg/kg/day, i.p.) treatment. Daily average food intake of HDAC6^Agrp-Δ (n=11) and HDAC6^WT (n=6) mice was measured during 3 weeks of ACY775 (10 mg/kg/day, i.p.) treatment. 24-hour food intake average of HDAC6^Agrp-Δ and HDAC6^WT mice during the 3 weeks of ACY775 treatment was assessed. Serum leptin level (ng/ml) of HDAC6^Agrp-Δ and HDAC6^WT mice after 2 weeks of ACY775 treatment (n=13 for HDAC6^WT and n=18 for HDAC6^Agrp-Δ) was measured. Lean mass (g); fat mass; and fat percentage (%) of HDAC6^Agrp-Δ and HDAC6^WT DIO mice after 3 weeks of ACY775 treatment was measured by DEXA scan. The HDAC6 inhibitor responsive neurons in the dorsomedial hypothalamus (DMH) were assessed. Immunostaining and quantification of c-Fos expression was performed in the DMH of DIO mice following one-time ACY775 treatment (10 mg/kg, i.p.).

[2] = system: ACY775-responsive DMH neurons; assay: Caspase3 ablation of ACY775-responsive DMH neurons in TRAP2 DIO mice; type: in vivo
Method: Whether the activity of ACY775-responsive DMH neurons could be involved in the food intake and bodyweight reducing activity of HDAC6 inhibitors was investigated as a possible second order of neurons to AgRP^ARC neurons. These neurons were ablated to investigate the necessity of these neurons in mediating the ACY775's anti-obesity effects. AAV-flex-taCasp3-TEVp was injected into the DMH of TRAP2 DIO mice, and then the mice were injected with a single dose of ACY775 and 4-OHT to ablate these neurons through caspase3 protein activation. To make sure that this experimental system worked, the existence of ACY775-responsive DMH neurons was verified by c-fos staining after injection of a second dose of ACY775. This experimental method predicts that caspase 3, when activated by administration of the first dose of ACY775 in conjugation with 4-OHT injection, will lead to ablation of ACY775-responsive DMH neurons, and diminish the c-fos signals that would otherwise be created by the second dose of ACY775.

DMH neurons = assay: c-Fos immunostaining in DMH of DIO mice; type: in vivo; conditions: fasting, acute 10 mg/kg i.p.
Method: as §1, with “Immunostaining and quantification of c-Fos expression was performed in the DMH of DIO mice following one-time ACY775 treatment (10 mg/kg, i.p.).” left out

Chain of HDAC6 (Q9Z2V5 whole entry): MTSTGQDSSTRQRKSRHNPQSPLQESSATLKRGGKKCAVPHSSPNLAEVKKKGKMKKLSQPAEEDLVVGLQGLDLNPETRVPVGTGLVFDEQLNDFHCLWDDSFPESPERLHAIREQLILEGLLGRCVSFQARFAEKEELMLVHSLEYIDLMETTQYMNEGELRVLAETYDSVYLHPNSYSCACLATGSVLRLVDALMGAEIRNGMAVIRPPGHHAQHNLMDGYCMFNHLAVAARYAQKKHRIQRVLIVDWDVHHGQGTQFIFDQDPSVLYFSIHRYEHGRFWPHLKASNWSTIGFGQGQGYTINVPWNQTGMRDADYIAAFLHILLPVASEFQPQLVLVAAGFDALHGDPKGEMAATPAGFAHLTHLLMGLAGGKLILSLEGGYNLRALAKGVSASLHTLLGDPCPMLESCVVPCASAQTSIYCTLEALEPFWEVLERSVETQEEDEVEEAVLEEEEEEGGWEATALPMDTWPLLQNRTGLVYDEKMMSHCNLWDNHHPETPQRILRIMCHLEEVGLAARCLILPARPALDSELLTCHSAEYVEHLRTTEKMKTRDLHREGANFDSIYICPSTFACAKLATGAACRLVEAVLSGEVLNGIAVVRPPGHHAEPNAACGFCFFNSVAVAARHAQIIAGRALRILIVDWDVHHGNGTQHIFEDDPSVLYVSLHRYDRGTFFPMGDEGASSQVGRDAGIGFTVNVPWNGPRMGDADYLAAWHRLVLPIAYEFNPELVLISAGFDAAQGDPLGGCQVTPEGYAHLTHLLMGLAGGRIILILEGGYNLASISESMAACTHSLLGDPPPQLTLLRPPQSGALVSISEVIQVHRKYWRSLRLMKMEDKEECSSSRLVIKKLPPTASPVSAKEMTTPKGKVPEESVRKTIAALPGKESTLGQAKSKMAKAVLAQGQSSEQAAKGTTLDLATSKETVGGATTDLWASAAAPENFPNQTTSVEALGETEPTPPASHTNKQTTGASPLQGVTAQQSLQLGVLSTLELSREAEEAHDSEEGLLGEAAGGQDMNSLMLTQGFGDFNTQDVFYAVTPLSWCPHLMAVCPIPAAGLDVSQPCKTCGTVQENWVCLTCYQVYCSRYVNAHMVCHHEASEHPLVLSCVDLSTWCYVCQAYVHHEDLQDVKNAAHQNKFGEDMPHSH

## O=C(NO)c1cnc(NC2(c3cccc(F)c3)CCCCC2)nc1 [ACY775, 2-[[1-(3-fluorophenyl)cyclohexyl]amino]-N-hydroxy-5-pyrimidinecarboxamide]
HDAC6
  deacetylation of LepRb: can completely block deactylation of LepRb
[1]
  body weight and food intake, two weeks: lost weight and food intake was reduced equally in both groups
  food intake after a dose in 24 h fasted mice: consumed similar but small amount of food
HDAC6 in AgRP neurons; HDAC6^Agrp-Δ DIO mice, 10 mg/kg i.p.
  suppression of food intake after a single dose: almost complete resistance to ACY755-induced suppression of food intake
HDAC6 in AgRP neurons; HDAC6^Agrp-Δ versus HDAC6^WT DIO mice
  anti-obesity effects on chronic treatment: Significantly attenuated effects
[2]; 10 mg/kg/day i.p.
  body weight and food consumption, chronic: neither reduced the body weight nor the food consumption in caspase3^on-DMH mice; also recorded: did reduce the food intake and bodyweight in caspase3^off-DMH mice
[2]; caspase3^on-DMH versus caspase3^off-DMH
  blood glucose levels: significantly higher in caspase3^on-DMH mice
[2]; caspase3^on-DMH versus caspase3^off-DMH, 10 mg/kg i.p.
  food intake in fasted mice: significantly higher than caspase3^off-DMH mice
DMH neurons
  c-fos positive cell number in the DMH: major increase in c-fos positive cell number
